# Measured values as given in patent publication US10414811B2, “Protease-resistant lipidated GLP-1 analogs” (MEDIMMUNE LIMITED, priority 2015, dated 2019).
# Like-named read-outs stand apart in the source and are kept apart here. Numbered stars: 1 amine (or outer) side, 2 acyl side, 3 side chain; on linkers, the order of the positions; unused ones are H or OH. Square brackets hold non-standard residues; d marks the D form. Side chains are listed from the residue outwards. Peptide text beside a SMILES is read from it. * marks the point of attachment. γGlu = O=C(O)[C@H](CCC(=O)[*:2])N[*:1]; αMeF = C[C@](N)(Cc1ccccc1)C(=O)O; αMeK = C[C@](N)(CCCCN)C(=O)O; Lauroyl = CCCCCCCCCCCC(=O)*; αMeS = C[C@](N)(CO)C(=O)O; AEEA = NCCOCCOCC(=O)O; Aib = CC(C)(N)C(=O)O
# Key:
# Format in all cases: cell-based
# Conditions in all cases: tris-lipidated peptides
# [1] = biological target: T1, human GLP-1 receptor (GLP-1R) (Homo sapiens, UniProt P43220); assay: cAMP assay, human GLP-1R cells
# T1 construct: expressed in transfected cells
# How it was run: (§1)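 Peptide-stimulated cAMP measured by two-step HTRF after a 30 min room-temperature incubation with receptor-expressing cells (hGLP-1R, hGIPR at 1×10^5 cells/ml; hGCGR at 2×10^5 cells/ml). Duplicate dilutions; EC50 from 4-parameter logistic fit of % Delta F.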
# [2] = biological target: T2, human glucagon receptor (GCGR) (Homo sapiens, UniProt P47871); assay: cAMP assay, human GCGR cells
# T2 construct: expressed in transfected cells
# How it was run: as §1
# [3] = biological target: T3, human glucose-dependent insulinotropic peptide receptor (GIPR) (Homo sapiens, UniProt P48546); assay: cAMP assay, human GIPR cells
# T3 construct: expressed in transfected cells
# T3 sequence (P48546 22-466): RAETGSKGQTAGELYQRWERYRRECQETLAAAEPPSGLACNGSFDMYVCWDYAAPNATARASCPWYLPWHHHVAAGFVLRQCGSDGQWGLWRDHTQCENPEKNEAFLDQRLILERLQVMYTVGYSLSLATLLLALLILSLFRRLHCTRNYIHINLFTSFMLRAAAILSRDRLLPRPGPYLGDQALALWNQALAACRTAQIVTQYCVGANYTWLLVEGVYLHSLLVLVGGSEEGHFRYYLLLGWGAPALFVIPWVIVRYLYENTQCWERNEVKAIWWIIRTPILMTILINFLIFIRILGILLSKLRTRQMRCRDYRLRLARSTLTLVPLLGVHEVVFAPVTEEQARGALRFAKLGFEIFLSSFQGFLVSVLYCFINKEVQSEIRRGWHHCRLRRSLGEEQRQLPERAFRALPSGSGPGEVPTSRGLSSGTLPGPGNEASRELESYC
# How it was run: as §1
# [4] = mean of n1 and n2, read-out: Primary assay EC50 Mean pM GLP-1R
# [5] = replicate n1, read-out: Primary assay EC50 GLP-1R n1
# [6] = replicate n2, read-out: Primary assay EC50 GLP-1R n2
# [7] = first replicate, read-out: Primary assay EC50 Gluc-R (n1)
# [8] = first replicate, read-out: Primary assay EC50 GIP-R (n1)
# [9] = second replicate, read-out: Primary assay EC50 GIP-R (n2)
# T2 sequence (P47871 26-477): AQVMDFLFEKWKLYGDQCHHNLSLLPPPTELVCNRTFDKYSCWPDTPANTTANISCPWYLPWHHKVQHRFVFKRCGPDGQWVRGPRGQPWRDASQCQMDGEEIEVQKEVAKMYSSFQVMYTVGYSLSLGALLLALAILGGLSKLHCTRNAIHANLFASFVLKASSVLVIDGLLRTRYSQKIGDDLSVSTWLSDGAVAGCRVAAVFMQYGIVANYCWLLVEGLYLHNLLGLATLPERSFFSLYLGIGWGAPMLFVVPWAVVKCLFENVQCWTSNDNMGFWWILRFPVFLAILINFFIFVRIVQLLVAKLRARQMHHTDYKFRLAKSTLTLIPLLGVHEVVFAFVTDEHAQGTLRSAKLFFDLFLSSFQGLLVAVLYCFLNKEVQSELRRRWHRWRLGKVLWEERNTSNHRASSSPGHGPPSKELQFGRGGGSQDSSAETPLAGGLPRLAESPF
# T1 sequence (P43220 24-463): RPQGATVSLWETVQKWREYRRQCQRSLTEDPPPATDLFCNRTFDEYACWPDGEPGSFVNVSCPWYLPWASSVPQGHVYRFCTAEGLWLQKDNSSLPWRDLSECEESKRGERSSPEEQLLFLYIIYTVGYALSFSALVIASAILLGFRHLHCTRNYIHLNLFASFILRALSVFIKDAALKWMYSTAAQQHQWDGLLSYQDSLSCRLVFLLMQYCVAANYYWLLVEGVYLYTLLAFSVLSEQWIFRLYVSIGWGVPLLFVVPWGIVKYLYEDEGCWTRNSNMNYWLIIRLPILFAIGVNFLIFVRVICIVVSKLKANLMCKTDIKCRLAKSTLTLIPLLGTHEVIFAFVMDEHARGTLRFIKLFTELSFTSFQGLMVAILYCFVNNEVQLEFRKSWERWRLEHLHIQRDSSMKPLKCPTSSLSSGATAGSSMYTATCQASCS
Compound,"EC50 [1, 4] [pM]","EC50 [1, 5] [pM]","EC50 [1, 6] [pM]","EC50 [2, 7] [nM]","EC50 [3, 8] [nM]","EC50 ([2]; second replicate, read-out: Primary assay EC50 Gluc-R (n2)) [nM]","EC50 [3, 9] [nM]"
CCCCCCCCCCCC(=O)N[C@@H](CCC(=O)NCCOCCOCC(=O)NCCOCCOCC(=O)NCCCC[C@H](NC(=O)[C@H](CCC(=O)O)NC(=O)[C@H](CC(C)C)NC(=O)[C@H](Cc1ccc(O)cc1)NC(=O)[C@H](CO)NC(=O)[C@H](CO)NC(=O)[C@H](CCCCNC(=O)COCCOCCNC(=O)COCCOCCNC(=O)CC[C@H](NC(=O)CCCCCCCCCCC)C(=O)O)NC(=O)[C@H](CC(=O)O)NC(=O)[C@H](CO)NC(=O)[C@@H](NC(=O)[C@](C)(Cc1ccccc1)NC(=O)[C@H](CO)NC(=O)CNC(=O)[C@H](CCC(=O)O)NC(=O)C(C)(C)NC(=O)[C@@H](N)Cc1c[nH]cn1)[C@@H](C)O)C(=O)N[C@@H](CCC(=O)O)C(=O)N[C@@H](C)C(=O)N[C@@H](C)C(=O)N[C@@](C)(CCCCN)C(=O)N[C@@H](CCC(=O)O)C(=O)N[C@@H](Cc1ccccc1)C(=O)N[C@H](C(=O)N[C@@H](C)C(=O)N[C@@H](Cc1ccccc1)C(=O)N[C@@H](CCCCNC(=O)COCCOCCNC(=O)COCCOCCNC(=O)CC[C@H](NC(=O)CCCCCCCCCCC)C(=O)O)C(=O)N[C@H](C(=O)N[C@@H](CCC(=O)O)C(=O)NCC(=O)NCC(N)=O)C(C)C)[C@@H](C)CC)C(=O)O [compound 471] (H-H[Aib]EGS[αMeF]TSDK([AEEA-AEEA-γGlu-Lauroyl])SSYLEK([AEEA-AEEA-γGlu-Lauroyl])EAA[αMeK]EFIAFK([AEEA-AEEA-γGlu-Lauroyl])VEGG-NH2),374,277,470,≥ 19.6,≥ 19.6,–,–
CCCCCCCCCCCC(=O)N[C@@H](CCC(=O)NCCOCCOCC(=O)NCCOCCOCC(=O)NCCCC[C@H](NC(=O)[C@H](CCC(=O)O)NC(=O)CNC(=O)[C@H](CCC(=O)O)NC(=O)[C@H](CC(C)C)NC(=O)[C@H](Cc1ccc(O)cc1)NC(=O)[C@H](CO)NC(=O)[C@H](CO)NC(=O)[C@H](CCCCNC(=O)COCCOCCNC(=O)COCCOCCNC(=O)CC[C@H](NC(=O)CCCCCCCCCCC)C(=O)O)NC(=O)[C@H](CC(=O)O)NC(=O)[C@H](CO)NC(=O)[C@@H](NC(=O)[C@](C)(Cc1ccccc1)NC(=O)[C@H](CO)NC(=O)CNC(=O)[C@H](CCC(=O)O)NC(=O)C(C)(C)NC(=O)[C@@H](N)Cc1c[nH]cn1)[C@@H](C)O)C(=O)N[C@@H](C)C(=O)N[C@@](C)(CCCCN)C(=O)N[C@@H](CCC(=O)O)C(=O)N[C@@H](Cc1ccccc1)C(=O)N[C@H](C(=O)N[C@@H](C)C(=O)N[C@@H](Cc1ccccc1)C(=O)N[C@@H](CCCCNC(=O)COCCOCCNC(=O)COCCOCCNC(=O)CC[C@H](NC(=O)CCCCCCCCCCC)C(=O)O)C(=O)N[C@H](C(=O)N[C@@H](CCC(=O)O)C(=O)NCC(=O)NCC(N)=O)C(C)C)[C@@H](C)CC)C(=O)O [compound 473] (H-H[Aib]EGS[αMeF]TSDK([AEEA-AEEA-γGlu-Lauroyl])SSYLEGEK([AEEA-AEEA-γGlu-Lauroyl])A[αMeK]EFIAFK([AEEA-AEEA-γGlu-Lauroyl])VEGG-NH2; N-terminus assumed),434,399,470,–,–,19.6,19.6
CCCCCCCCCCCC(=O)N[C@@H](CCC(=O)NCCOCCOCC(=O)NCCOCCOCC(=O)NCCCC[C@H](NC(=O)CNC(=O)[C@H](CCC(=O)O)NC(=O)[C@H](CCCCNC(=O)COCCOCCNC(=O)COCCOCCNC(=O)CC[C@H](NC(=O)CCCCCCCCCCC)C(=O)O)NC(=O)[C@H](Cc1ccc(O)cc1)NC(=O)[C@H](CO)NC(=O)[C@](C)(CO)NC(=O)[C@@H](NC(=O)[C@H](CC(=O)O)NC(=O)[C@H](CO)NC(=O)[C@@H](NC(=O)[C@](C)(Cc1ccccc1)NC(=O)[C@H](CO)NC(=O)CNC(=O)[C@H](CCC(=O)O)NC(=O)C(C)(C)NC(=O)[C@@H](N)Cc1c[nH]cn1)[C@@H](C)O)C(C)C)C(=O)N[C@@H](C)C(=O)N[C@@H](C)C(=O)N[C@@](C)(CCCCN)C(=O)N[C@@H](CCC(=O)O)C(=O)N[C@@H](Cc1ccccc1)C(=O)N[C@H](C(=O)N[C@@H](C)C(=O)N[C@@H](Cc1ccccc1)C(=O)N[C@@H](CCCCNC(=O)COCCOCCNC(=O)COCCOCCNC(=O)CC[C@H](NC(=O)CCCCCCCCCCC)C(=O)O)C(=O)N[C@H](C(=O)N[C@@H](CCC(=O)O)C(=O)NCC(=O)NCC(N)=O)C(C)C)[C@@H](C)CC)C(=O)O [compound 484] (H-H[Aib]EGS[αMeF]TSDV[αMeS]SYK([AEEA-AEEA-γGlu-Lauroyl])EGK([AEEA-AEEA-γGlu-Lauroyl])AA[αMeK]EFIAFK([AEEA-AEEA-γGlu-Lauroyl])VEGG-NH2),–,163,–,≥ 19.9,≥ 19.9,–,–

# Results, then the compound that gave them:
"EC50 [1, 4] [pM]","EC50 [1, 5] [pM]","EC50 [1, 6] [pM]","EC50 [2, 7] [nM]","EC50 [3, 8] [nM]","EC50 ([2]; second replicate, read-out: Primary assay EC50 Gluc-R (n2)) [nM]","EC50 [3, 9] [nM]",Compound
186,132,239,19.8,–,–,19.8,CCCCCCCCCCCC(=O)N[C@@H](CCC(=O)NCCOCCOCC(=O)NCCOCCOCC(=O)NCCCC[C@H](NC(=O)[C@H](CCC(=O)O)NC(=O)[C@H](CC(C)C)NC(=O)[C@H](CCCCNC(=O)COCCOCCNC(=O)COCCOCCNC(=O)CC[C@H](NC(=O)CCCCCCCCCCC)C(=O)O)NC(=O)[C@H](CO)NC(=O)[C@](C)(CO)NC(=O)[C@@H](NC(=O)[C@H](CC(=O)O)NC(=O)[C@H](CO)NC(=O)[C@@H](NC(=O)[C@](C)(Cc1ccccc1)NC(=O)[C@H](CO)NC(=O)CNC(=O)[C@H](CCC(=O)O)NC(=O)C(C)(C)NC(=O)[C@@H](N)Cc1c[nH]cn1)[C@@H](C)O)C(C)C)C(=O)N[C@@H](CCC(=O)O)C(=O)N[C@@H](C)C(=O)N[C@@H](C)C(=O)N[C@@](C)(CCCCN)C(=O)N[C@@H](CCC(=O)O)C(=O)N[C@@H](Cc1ccccc1)C(=O)N[C@H](C(=O)N[C@@H](C)C(=O)N[C@@H](Cc1ccccc1)C(=O)N[C@@H](CCCCNC(=O)COCCOCCNC(=O)COCCOCCNC(=O)CC[C@H](NC(=O)CCCCCCCCCCC)C(=O)O)C(=O)N[C@H](C(=O)N[C@@H](CCC(=O)O)C(=O)NCC(=O)NCC(N)=O)C(C)C)[C@@H](C)CC)C(=O)O [compound 479] (H-H[Aib]EGS[αMeF]TSDV[αMeS]SK([AEEA-AEEA-γGlu-Lauroyl])LEK([AEEA-AEEA-γGlu-Lauroyl])EAA[αMeK]EFIAFK([AEEA-AEEA-γGlu-Lauroyl])VEGG-NH2)
244,229,258,≥ 19.6,≥ 19.6,–,–,CCCCCCCCCCCC(=O)N[C@@H](CCC(=O)NCCOCCOCC(=O)NCCOCCOCC(=O)NCCCC[C@H](NC(=O)[C@H](CCC(=O)O)NC(=O)[C@H](CCCCNC(=O)COCCOCCNC(=O)COCCOCCNC(=O)CC[C@H](NC(=O)CCCCCCCCCCC)C(=O)O)NC(=O)[C@H](Cc1ccc(O)cc1)NC(=O)[C@H](CO)NC(=O)[C@](C)(CO)NC(=O)[C@@H](NC(=O)[C@H](CC(=O)O)NC(=O)[C@H](CO)NC(=O)[C@@H](NC(=O)[C@](C)(Cc1ccccc1)NC(=O)[C@H](CO)NC(=O)CNC(=O)[C@H](CCC(=O)O)NC(=O)C(C)(C)NC(=O)[C@@H](N)Cc1c[nH]cn1)[C@@H](C)O)C(C)C)C(=O)N[C@@H](CCC(=O)O)C(=O)N[C@@H](C)C(=O)N[C@@H](C)C(=O)N[C@@](C)(CCCCN)C(=O)N[C@@H](CCC(=O)O)C(=O)N[C@@H](Cc1ccccc1)C(=O)N[C@H](C(=O)N[C@@H](C)C(=O)N[C@@H](Cc1ccccc1)C(=O)N[C@@H](CCCCNC(=O)COCCOCCNC(=O)COCCOCCNC(=O)CC[C@H](NC(=O)CCCCCCCCCCC)C(=O)O)C(=O)N[C@H](C(=O)N[C@@H](CCC(=O)O)C(=O)NCC(=O)NCC(N)=O)C(C)C)[C@@H](C)CC)C(=O)O [compound 483] (H-H[Aib]EGS[αMeF]TSDV[αMeS]SYK([AEEA-AEEA-γGlu-Lauroyl])EK([AEEA-AEEA-γGlu-Lauroyl])EAA[αMeK]EFIAFK([AEEA-AEEA-γGlu-Lauroyl])VEGG-NH2; N-terminus assumed)
195,167,224,19.6,19.6,–,–,CCCCCCCCCCCC(=O)N[C@@H](CCC(=O)NCCOCCOCC(=O)NCCOCCOCC(=O)NCCCC[C@H](NC(=O)[C@H](CCC(=O)O)NC(=O)CNC(=O)[C@H](CCC(=O)O)NC(=O)[C@H](CCCCNC(=O)COCCOCCNC(=O)COCCOCCNC(=O)CC[C@H](NC(=O)CCCCCCCCCCC)C(=O)O)NC(=O)[C@H](Cc1ccc(O)cc1)NC(=O)[C@H](CO)NC(=O)[C@](C)(CO)NC(=O)[C@@H](NC(=O)[C@H](CC(=O)O)NC(=O)[C@H](CO)NC(=O)[C@@H](NC(=O)[C@](C)(Cc1ccccc1)NC(=O)[C@H](CO)NC(=O)CNC(=O)[C@H](CCC(=O)O)NC(=O)C(C)(C)NC(=O)[C@@H](N)Cc1c[nH]cn1)[C@@H](C)O)C(C)C)C(=O)N[C@@H](C)C(=O)N[C@@](C)(CCCCN)C(=O)N[C@@H](CCC(=O)O)C(=O)N[C@@H](Cc1ccccc1)C(=O)N[C@H](C(=O)N[C@@H](C)C(=O)N[C@@H](Cc1ccccc1)C(=O)N[C@@H](CCCCNC(=O)COCCOCCNC(=O)COCCOCCNC(=O)CC[C@H](NC(=O)CCCCCCCCCCC)C(=O)O)C(=O)N[C@H](C(=O)N[C@@H](CCC(=O)O)C(=O)NCC(=O)NCC(N)=O)C(C)C)[C@@H](C)CC)C(=O)O [compound 485] (H-H[Aib]EGS[αMeF]TSDV[αMeS]SYK([AEEA-AEEA-γGlu-Lauroyl])EGEK([AEEA-AEEA-γGlu-Lauroyl])A[αMeK]EFIAFK([AEEA-AEEA-γGlu-Lauroyl])VEGG-NH2)
